{"source": "ChEMBL document CHEMBL1144312", "about": "“Synthesis of mono-glucose-branched cyclodextrins with a high inclusion ability for doxorubicin and their efficient glycosylation using Mucor hiemalis endo-beta-N-acetylglucosaminidase” (Bioorg Med Chem Lett, 2005)", "key": {"[1]": {"test_system": "doxorubicin (immobilized ligand, no protein target)", "experiment": "Dissociation rate constant for cyclodextrin binding to immobilized doxorubicin by SPR biosensor"}, "[2]": {"test_system": "doxorubicin (immobilized ligand, no protein target)", "experiment": "Association rate constant for cyclodextrin binding to immobilized doxorubicin by SPR biosensor"}, "[3]": {"test_system": "doxorubicin (immobilized ligand, no protein target)", "experiment": "Association constant for cyclodextrin binding to immobilized doxorubicin by SPR biosensor"}}}
{"molecule": "OCC1OC2OC3C(CO)OC(OC4C(CO)OC(OC5C(COCCCOc6ccc(O[C@@H]7O[C@@H](CO)[C@@H](O)[C@H](O)[C@@H]7O)cc6)OC(OC6C(CO)OC(OC7C(CO)OC(OC8C(CO)OC(OC1C(O)C2O)C(O)C8O)C(O)C7O)C(O)C6O)C(O)C5O)C(O)C4O)C(O)C3O", "note": "(stereo partly drawn)", "values": [{"measurement": "K diss", "setting": "[1]", "value": "2.1 10E-2·1/s"}, {"measurement": "K ass", "setting": "[2]", "value": "4.6 10E3·1/M·1/s"}, {"measurement": "Ka", "setting": "[3]", "value": "220 10E3·1/M"}]}
